The record followed here is patent EP0410366A2, “Anthracycline derivatives” (BEHRINGWERKE Aktiengesellschaft, priority 1989, dated 1991).

≈ marks a conversion by molar mass, not a printed value. Read-outs that look alike come from different tables or passages of the source. A value given as a limit tells only on which side of the number the result lay.

One data set relates to A 549. The experiment in a line: Proliferation test (MTT reduction), A 549. In kind it is cell-based. Particulars: Homo sapiens, read-out: IC₅₀ MTT A 549. On the procedure: (§1) L 1210, A 549 oder HT 29 in exponentieller Wachstumsphase werden in einer Zelldichte von 5 x 10³ Zellen/ml in RPMI 1640 in einer 96 Well Mikrotiterplatte für 72 h mit unterschiedlichen Konzentrationen der Testsubstanz bei 37° C, 5 % CO₂ und 95 % relativer Luftfeuchte inkubiert. Kontrollexperimente erhalten anstelle der Testsubstanz lediglich Wachstumsmedium. Für jede Testsubstanz sowie für die Kontrolle werden 4fach Bestimmungen angesetzt. Nach 65 h Inkubation werden 50 µl einer MTT-Lösung (2.5 mg/ml in Phosphat-gepuffertem Kochsalz) zugegeben. In Gegenwart lebender Zellen wird MTT zu einem dunkelroten unlöslichen Formazanfarbstoff reduziert. Diese Reaktion ist nach 7 h (L 1210 Zellen) bzw. nach 24 h (A 549, HT 29 Zellen) beendet, und das überstehende Medium wird sorgfältig abgesaugt. Der unlösliche Farbstoff wird durch Zugabe von 100 µl DMSO aufgelöst und die Extinktion der so entstehenden Lösung anschließend für jedes Well in einem Multiscan Photometer 340 CC der Fa. Flow bei einer Wellenlänge von 492 nm vermessen.
(§2) Aus dem Verhältnis der Extinktionen behandelter und unbehandelter Zellen ergibt sich eine Dosis-Wirkungskurve, aus der die Konzentration, die gerade 50 % der Zellen (IC₅₀) abtötet, abgelesen werden kann. Für wiederholte Untersuchungen beträgt der Variationskoeffizient weniger als 15 % (Tabelle 1). Tabelle 1
For orientation: Tetrazolium dyes change colour on reduction, which living cells bring about.

For a further data set, the system named is L 1210. The experiment in a line: Proliferation test (MTT reduction), L 1210. Particulars: Mus musculus, read-out: IC₅₀ MTT L1210. It is filed as cell-based, Maus. As for the experimental part: as §1, §2
A further data set has as its system HT 29. The experiment in a line: Proliferation test (MTT reduction), HT 29. It is filed as cell-based. The note with it: Homo sapiens, read-out: IC₅₀ MTT HT 29. As for the experimental part: as §1, §2
Another data set deals with L 1210 Leukämiezellen. The experiment in a line: Cytotoxicity against L 1210 leukemia cells (stem cell assay, SCA; colony formation in soft agar). It is filed as cell-based, Maus. Particulars: Mus musculus. As for the experimental part:
Der Test wurde entsprechend der von Hamburger und Salmon beschriebenen Methodik mit den unten beschriebenen Modifikationen durchgeführt.
Konditioniertes Medium wurde durch McCoy 5A Medium ersetzt. Als Folge der hohen Klonierungsrate der L 1210 Leukämiezellen in Soft Agar wurde die Anzahl an Tumorzellen pro Platte auf 5 x 10² reduziert.
Die Zellen wurden mit unterschiedlichen Konzentrationen der Testsubstanz für 1 h bei 37° C inkubiert. Anschließend wurden die Zellen zweimal mit McCoy 5A Medium gewaschen und anschließend in einem Zwei-Schichten-Agar System als obere Schicht entsprechend der Methode von Hamburger und Salmon ausplatiert.
Zusätzliche Parallelexperimente wurden unter Verwendung einer kontinuierlichen Inkubationszeit durchgeführt, wobei unterschiedliche Konzentrationen der Testsubstanz der oberen Agarschicht vor Ausplatieren der Zellen zugemischt wurden.
Die Platten wurden in einem Brutschrank mit 5 % CO₂, 20 % 02 und 95 % relativer Luftfeuchte für 5-7 Tage inkubiert. Nach dieser Zeit wurden Kolonien mit einem Durchmesser von 60 µm mit Hilfe eines Invertoskopes gezählt.
Die Ergebnisse wurden angegeben als prozentualer Anteil der Kolonien in behandelten versus unbehandelten Gruppen. Der Variationskoeffizient bei wiederholten Experimenten war kleiner als 15 %.
Aus der Dosis-Wirkungskurve wurde die IC₅₀ für die kontinuierliche und einstündige Inkubation bestimmt (Tab. 1).

The next data set has as its system L 1210 Leukämie. In kind it is in vivo. The note with it: for opt. Dosis: dose with the largest antitumoral effect. On the procedure:
Methodik: Ascitesflüssigkeit wird unter sterilen Bedingungen DBA2 Mäusen (weiblich, 18-20 g) 7 Tage nach Implantation entnommen. Der Ascites wird dreimal mit PBS gewaschen, gezählt und auf eine Zellzahl von 10⁴ in 0.2 ml PBS eingestellt.
10⁴ Zellen, suspendiert in 0.2 ml PBS, werden anschließend DBF1 Mäusen (weiblich, 18-20 g) intravenös injiziert. 6 Tiere pro Gruppe werden für jede Substanzkonzentration bzw. als Kontrolle eingesetzt.
• a) Die Tiere werden am Tag 1 und 5 nach Injektion der Testsubstanz gewogen. Gewichtsverlust von mehr als 20 % am Tag 5 wird als Indikator einer toxischen Substanzwirkung angesehen. • b) Am Ende des Experimentes (Tod aller Tiere oder überlebende Tiere am Tag 60) wird die mittlere Überlebenszeit der Tiere in den jeweiligen Gruppen bestimmt, sofern am Tag 5 des Experimentes mindestens 65 % der Tiere noch gelebt hatten. Die mittlere Überlebenszeit wird ausschließlich für im Verlaufe des Experimentes sterbende Tiere bestimmt. Langzeit-überlebende (LTS) werden bei dieser Berechnung nicht berücksichtigt und gesondert aufgeführt.
Aus der mittleren Überlebenszeit (MSTt) der behandelten Gruppen sowie der Kontrollgruppen (MSTc) wird die antitumorale Wirksamkeit (T/C) für die jeweilige Substanzkonzentration in Prozent der unbehandelten Kontrolle entsprechend der folgenden Formel bestimmt: [formula]
T/C Werte größer als 125 % werden als Indikator einer signifikanten antitumoralen Wirksamkeit der Testsubstanz angesehen. Die Dosis, die den größten antitumoralen Effekt (optimale Dosierung) zeigte, wurde ermittelt. Tiere, die am Tag 60 des Experimentes noch leben, werden als Longterm-Survivors getrennt aufgeführt. Tabelle 2

[1] abbreviates: L1210, read-out: IC₅₀ SCA L 1210 1 h.
Setting [2] is: L 1210 iv, treatment iv, Q3D (Verbind. 1: 2x, Pirarubicin: 3x).

As for `COc1cc(OC)cc(C(C)(C)OC(=O)N[C@H]2C[C@H](O[C@H]3C[C@](O)(C(C)=O)Cc4c(O)c5c(c(O)c43)C(=O)c3c(OC)cccc3C5=O)O[C@@H](C)[C@H]2O)c1` [Verbindung 4, 7-O-(3-(3 ,5′-Dimethoxy-α,α-dimethyl-benzyloxycarbonylamino)-2,3,6-tridesoxy-alpha-L-lyxohexopyranosyl)-daunomycinon], the IC50 in the data set on A 549 (A549, 72 h) came to 0.13 µg/mL (≈ 0.173 µM); in the data set with L 1210 (L1210, 72 h), 0.14 µg/mL (≈ 0.187 µM); with HT 29 (HT-29, 72 h), 0.13 µg/mL (≈ 0.173 µM); in the data set with L 1210 Leukämiezellen (setting [1]), 4.5 µg/mL (≈ 6 µM).
With `COc1cccc2c1C(=O)c1c(O)c3c(c(O)c1C2=O)C[C@@](O)(C(=O)CO)C[C@@H]3O[C@H]1C[C@H](N)[C@H](O[C@@H]2CCCCO2)[C@H](C)O1` [Pirarubicin, 4′-O-THP-Doxorubicin, reference compound], the “opt. Dosis” value in the data set with L 1210 Leukämie (setting [2]) amounted to 4.7 mg/kg/inj. Also, the “Effektivität T/C %” value in the data set with L 1210 Leukämie (iv) stood at 178%. Moreover, the IC50 in the data set on A 549 (A549, 72 h incubation) was 0.15 µg/mL (≈ 0.239 µM); with L 1210 (L1210, 72 h incubation), 0.004 µg/mL (≈ 0.00637 µM); with HT 29 (HT-29, 72 h incubation), 0.016 µg/mL (≈ 0.0255 µM); in the data set with L 1210 Leukämiezellen (L1210, 1 h incubation at 37° C, colonies counted after 5-7 days, read-out: IC₅₀ SCA L 1210 1 h) it was 0.01 µg/mL (≈ 0.0159 µM); in the data set with L 1210 Leukämiezellen (L1210, continuous incubation, colonies counted after 5-7 days, read-out: IC₅₀ SCA L 1210 cont), 0.004 µg/mL (≈ 0.00637 µM).
`COc1cc(OC)cc(C(C)(C)OC(=O)N[C@H]2C[C@H](O[C@H]3C[C@](O)(C(=O)CO)Cc4c(O)c5c(c(O)c43)C(=O)c3c(OC)cccc3C5=O)O[C@@H](C)[C@H]2OC2CCCCO2)c1` (stereo partly drawn) [Verbindung 1, 7-O-(3-(3 ,5′-Dimethoxy-α,α-dimethyl-benzyloxycarbonylamino)-4-O-tetrahydropyranyl-2,3,6-tridesoxy-alpha-L-lyxohexopyranosyl)-adriamycinon]: the “zytostatische Wirksamkeit” value in the data set on L 1210 Leukämie ("in vivo" L 1210-Testmodell, compared with Doxorubicin or Tetrahydropyranyl-Doxorubicin) is given as “erheblich bessere”. The Effektivität toxisch in the data set with L 1210 Leukämie (animals per group with toxic effect, at optimal dose) is given as 1/6. Besides, the “Effektivität T/C %” value with L 1210 Leukämie (at optimal dose, mean survival time treated vs control, L 1210 iv, treatment iv, Q3D (Verbind. 1: 2x, Pirarubicin: 3x)) is given as 435%. Also, in the data set with L 1210 Leukämie (setting [2]), the “opt. Dosis” value stood at 20 mg/kg/inj. The “Effektivität LTS” value in the data set on L 1210 Leukämie (long-term survivors at day 60, animals per group, at optimal dose) was 5/6. Further, the IC50 in the data set on A 549 (A549, 72 h) worked out at 0.023 µg/mL (≈ 0.0271 µM); in the data set with L 1210 (L1210, 72 h), 0.027 µg/mL (≈ 0.0318 µM); with HT 29 (HT-29, 72 h), 0.04 µg/mL (≈ 0.0471 µM); in the data set on L 1210 Leukämiezellen (setting [1]) it was 5.3 µg/mL (≈ 6.24 µM).
In the case of `COc1cc(OC)cc(C(C)(C)OC(=O)N[C@H]2C[C@H](O[C@H]3C[C@](O)(C(=O)CO)Cc4c(O)c5c(c(O)c43)C(=O)c3c(OC)cccc3C5=O)O[C@@H](C)[C@@H]2O)c1` [Verbindung 3, 7-O-(3-(3 ,5′-Dimethoxy-α,α-dimethyl-benzyloxycarbonylamino)-2,3,6-tridesoxy-alpha-L-arabinohexopyranosyl)-adriamycinon], the IC50 with A 549 (A549, 72 h) is 0.04 µg/mL (≈ 0.0522 µM); in the data set on L 1210 (L1210, 72 h), 0.02 µg/mL (≈ 0.0261 µM); in the data set with HT 29 (HT-29, 72 h), 0.11 µg/mL (≈ 0.144 µM).
Consider `COc1cc(OC)cc(C(C)(C)OC(=O)N[C@H]2C[C@H](O[C@H]3C[C@](O)(C(=O)CO)Cc4c(O)c5c(c(O)c43)C(=O)c3c(OC)cccc3C5=O)O[C@@H](C)[C@H]2O)c1` [Verbindung 2, 7-O-(3-(3 ,5′-Dimethoxy-α,α-dimethyl-benzyloxycarbonylamino)-2,3,6-tridesoxy-alpha-L-lyxohexopyranosyl)-adriamycinon], for which the IC50 in the data set on A 549 (A549, 72 h) came out at 0.11 µg/mL (≈ 0.144 µM); with L 1210 (L1210, 72 h), 0.11 µg/mL (≈ 0.144 µM); in the data set on HT 29 (HT-29, 72 h), 0.13 µg/mL (≈ 0.17 µM); in the data set with L 1210 Leukämiezellen (setting [1]), 6.4 µg/mL (≈ 8.36 µM).
As for `CC[C@@]1(O)C[C@H](O[C@H]2C[C@H](NC(=O)OC(C)(C)c3cc(OC)cc(OC)c3)[C@H](O)[C@H](C)O2)c2c(O)c3c(c(O)c2[C@H]1O)C(=O)c1cccc(O)c1C3=O` [Verbindung 8, 7-O-(3-(3,5-Dimethoxy-alpha,alpha-dimethyl-benzyloxycarbonylamino)-2,3,6-tridesoxy-alpha-L-lyxohexopyranosyl)-β-rhodomycinon], the IC50 in the data set with A 549 (A549, 72 h) is under 0.004 µg/mL; with L 1210 (L1210, 72 h) it was 0.004 µg/mL (≈ 0.00542 µM); in the data set on HT 29 (HT-29, 72 h), under 0.004 µg/mL; in the data set with L 1210 Leukämiezellen (setting [1]), 0.47 µg/mL (≈ 0.637 µM).
